Test results published in PubChem BioAssay AID1919002 (Molecular Pharmacology Branch, DTP, NCI, 2023).

Test system: 743489-274-T-PDC complex spheroid growth
Assay: Anticancer human tumor 743489-274-T-PDC patient-derived renal cell carcinoma cell line growth inhibition [AhR]
Conditions: for IC50: curve of first compound; for viability, T/C: stronger effect = lower value
Description: Multicellular complex tumor spheroid response to aryl hydrocarbon receptor antagonists in combination with a variety of drugs and investigational agents in selected tumor cell lines
The current study was undertaken to assess response to aryl hydrocarbon receptor antagonists in combination with standard-of-care drugs and investigational agents in solid tumor complex spheroid models. Complex spheroids include a stromal component modeled by human endothelial cells (HUVEC) and fibroblasts modeled by human mesenchymal stem cells (MSCs). The concentration ranges selected for each drug and investigational agent were based upon clinically achievable concentrations if the clinical Cmax of the agent was known.
Compounds. The drugs and investigational agents: BAY 2416964 (NSC825713), GNF351 (NSC835774), CH-223191 (NSC835775), CPI-455 (NSC825282), aza-TdCyd (NSC777586), decitabine (NSC127716), belinostat (NSC758774), entinostat (NSC756642), pevonedistat (NSC761192), tazemetostat (NSC777109), talazoparib (NSC765396), olaparib (NSC753686), selinexor (NSC780203), nedisertib (M3814, NSC802822), bortezomib (NSC756655), venetoclax (NSC766270), doxorubicin (NSC123127), elimusertib (BAY189344, NSC800525), ceralasertib (AZD6738, NSC777638), TAK-243 (NSC785004), alisertib (NSC759677), etoposide (NSC141540), topotecan (NSC609699), eribulin (NSC707389), gemcitabine (NSC613327), carboplatin (NSC241240), cisplatin (NSC119875), and SN-38 (NSC673596) were obtained from the National Cancer Institute (NCI) Developmental Therapeutics Program Chemical Repository (32). The FDA-approved anticancer drug set is available from the Developmental Therapeutics Program at https://dtp.cancer.gov/organization/dscb/obtaining/available plates.htm. […] The stock solutions were prepared in dimethyl sulfoxide (DMSO, Sigma-Aldrich, St. Louis, MO, cat. D2650), except for the platinum compounds which were prepared in saline (Quality Biological, Gaithersburg, MD, cat. 114-055-101), at 800-fold the tested concentration and stored at -70 degrees C prior to their use. All drugs and investigational agents were tested over a range starting from a high concentration at or near the clinical Cmax and decreasing in half-log increments. If the clinical Cmax for an agent had not been determined, the highest concentration tested was 10 microM (Table 1).
Cell Culture. All cells were maintained in an incubator at 37 degrees C and 5% CO2 with 95% humidity. The PDC lines were cultured according to standard operating procedures established by the NCI PDMR (https://pdmr.cancer.gov). Briefly, all PDCs were thawed and cultured in Matrigel-coated flasks prepared with a working solution of 1X Ham's F-12 nutrient mix, without supplementation (Invitrogen, Waltham, MA, cat. 11765054), 100 U/mL penicillin-streptomycin (Invitrogen, cat. 15140122), and 2.5% Matrigel (Corning Inc., Corning, NY, cat. 354248) for the first three passages. All PDCs were cultured in complete DMEM/F-12 media containing advanced DMEM/F-12 (Invitrogen, cat. 12634028), 4.9% defined fetal bovine serum, heat inactivated (HyClone Laboratories Inc., Logan, UT, cat. SH30070.03HI), 389 ng/mL hydrocortisone (Sigma-Aldrich, cat. H4001), 9.7 ng/mL human EGF recombinant protein (Invitrogen, cat. PHG0313), 23.4 microg/mL adenine (Sigma-Aldrich, cat. A2786), 97.3 U/mL penicillin-streptomycin (Invitrogen, cat. 15140122), 1.9 mM L-glutamine (Invitrogen, cat. 25030081), and 9.7 microM Y-27632 dihydrochloride (Tocris Bioscience, Bristol, United Kingdom, cat. 1254). The PDCs were cultured in complete DMEM/F12 media without 10 microM Y-27632 dihydrochloride for at least two passages prior to the screen. The established cell lines NCI-H1341 and […] were cultured in DMEM/F-12, HEPES (Invitrogen, cat. 11330032), 5% defined fetal bovine serum (HyClone Laboratories Inc., cat. SH30070.03), ITS premix universal culture supplement [insulin (5 microg/mL), transferrin (5 microg/mL), and selenious acid (5 ng/mL)] […]

[1] = second compound 0.1 µM, first compound 0.0316 µM
[2] = second compound 0.1 µM, first compound 0.1 µM
[3] = second compound 0.316 µM, first compound 0.0316 µM
[4] = second compound 0.316 µM, first compound 0.1 µM
[5] = second compound 1 µM, first compound 0.0316 µM
[6] = second compound 1 µM, first compound 0.1 µM
[7] = second compound 3.16 µM, first compound 0.0316 µM
[8] = second compound 3.16 µM, first compound 0.1 µM
[9] = second compound 10 µM, first compound 0.0316 µM
[10] = second compound 10 µM, first compound 0.1 µM
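Note: spheroids exposed to agents for 7 days before readout.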
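Throughout, for viability, T/C: 100% = DMSO vehicle control wells.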

CC[C@@]1(O)C(=O)OCc2c1cc1n(c2=O)Cc2cc3c(CN(C)C)c(O)ccc3nc2-1 + CC(CO)NC(=O)c1cc(-c2ccc(Cl)cc2)nn(-c2cnn(C)c2)c1=O
IC50 (second compound 0.1 µM): > 100 nM | IC50 (second compound 0.316 µM): > 100 nM | IC50 (second compound 1 µM): > 100 nM | IC50 (second compound 3.16 µM): > 100 nM | IC50 (second compound 10 µM): > 100 nM | viability, T/C (second compound 0.1 µM, first compound 0.000316 µM): 99.8% | viability, T/C (second compound 0.1 µM, first compound 0.001 µM): 97.9% | viability, T/C (second compound 0.1 µM, first compound 0.00316 µM): 91.4% | viability, T/C (second compound 0.1 µM, first compound 0.01 µM): 94.4% | viability, T/C [1]: 86.6% | viability, T/C [2]: 86.4% | viability, T/C (second compound 0.316 µM, first compound 0.000316 µM): 90.7% | viability, T/C (second compound 0.316 µM, first compound 0.001 µM): 96.5% | viability, T/C (second compound 0.316 µM, first compound 0.00316 µM): 102% | viability, T/C (second compound 0.316 µM, first compound 0.01 µM): 84.7% | viability, T/C [3]: 83.3% | viability, T/C [4]: 82.3% | viability, T/C (second compound 1 µM, first compound 0.000316 µM): 96.2% | viability, T/C (second compound 1 µM, first compound 0.001 µM): 98.9% | viability, T/C (second compound 1 µM, first compound 0.00316 µM): 95.4% | viability, T/C (second compound 1 µM, first compound 0.01 µM): 87% | viability, T/C [5]: 86.2% | viability, T/C [6]: 79% | viability, T/C (second compound 3.16 µM, first compound 0.000316 µM): 91.2% | viability, T/C (second compound 3.16 µM, first compound 0.001 µM): 89.9% | viability, T/C (second compound 3.16 µM, first compound 0.00316 µM): 92.4% | viability, T/C (second compound 3.16 µM, first compound 0.01 µM): 84% | viability, T/C [7]: 92.5% | viability, T/C [8]: 88.3% | viability, T/C (second compound 10 µM, first compound 0.000316 µM): 92.4% | viability, T/C (second compound 10 µM, first compound 0.001 µM): 92.7% | viability, T/C (second compound 10 µM, first compound 0.00316 µM): 109% | viability, T/C (second compound 10 µM, first compound 0.01 µM): 92.4% | viability, T/C [9]: 85.9% | viability, T/C [10]: 81.4%

CCc1c2c(nc3ccc(O)cc13)-c1cc3c(c(=O)n1C2)COC(=O)[C@]3(O)CC + CC(CO)NC(=O)c1cc(-c2ccc(Cl)cc2)nn(-c2cnn(C)c2)c1=O
IC50 (second compound 0.1 µM): > 300 nM | IC50 (second compound 0.316 µM): > 300 nM | IC50 (second compound 1 µM): > 300 nM | IC50 (second compound 3.16 µM): > 300 nM | IC50 (second compound 10 µM): > 300 nM | viability, T/C (second compound 0.1 µM, first compound 0.000949 µM): 107% | viability, T/C (second compound 0.1 µM, first compound 0.003 µM): 105% | viability, T/C (second compound 0.1 µM, first compound 0.00949 µM): 87% | viability, T/C (second compound 0.1 µM, first compound 0.03 µM): 88.1% | viability, T/C (second compound 0.1 µM, first compound 0.0949 µM): 70.5% | viability, T/C (second compound 0.1 µM, first compound 0.3 µM): 64.5% | viability, T/C (second compound 0.316 µM, first compound 0.000949 µM): 87.7% | viability, T/C (second compound 0.316 µM, first compound 0.003 µM): 94% | viability, T/C (second compound 0.316 µM, first compound 0.00949 µM): 103% | viability, T/C (second compound 0.316 µM, first compound 0.03 µM): 78.7% | viability, T/C (second compound 0.316 µM, first compound 0.0949 µM): 71.5% | viability, T/C (second compound 0.316 µM, first compound 0.3 µM): 55.8% | viability, T/C (second compound 1 µM, first compound 0.000949 µM): 98.4% | viability, T/C (second compound 1 µM, first compound 0.003 µM): 88.7% | viability, T/C (second compound 1 µM, first compound 0.00949 µM): 91.6% | viability, T/C (second compound 1 µM, first compound 0.03 µM): 88.7% | viability, T/C (second compound 1 µM, first compound 0.0949 µM): 73.1% | viability, T/C (second compound 1 µM, first compound 0.3 µM): 68.4% | viability, T/C (second compound 3.16 µM, first compound 0.000949 µM): 94.2% | viability, T/C (second compound 3.16 µM, first compound 0.003 µM): 100% | viability, T/C (second compound 3.16 µM, first compound 0.00949 µM): 97.9% | viability, T/C (second compound 3.16 µM, first compound 0.03 µM): 84.3% | viability, T/C (second compound 3.16 µM, first compound 0.0949 µM): 76.8% | viability, T/C (second compound 3.16 µM, first compound 0.3 µM): 59.3% | viability, T/C (second compound 10 µM, first compound 0.000949 µM): 87.7% | viability, T/C (second compound 10 µM, first compound 0.003 µM): 93.1% | viability, T/C (second compound 10 µM, first compound 0.00949 µM): 82.7% | viability, T/C (second compound 10 µM, first compound 0.03 µM): 97.7% | viability, T/C (second compound 10 µM, first compound 0.0949 µM): 79.7% | viability, T/C (second compound 10 µM, first compound 0.3 µM): 65.2%

Nc1ccn(C2OC(CO)C(O)C2(F)F)c(=O)n1 (stereo not given) + CC(CO)NC(=O)c1cc(-c2ccc(Cl)cc2)nn(-c2cnn(C)c2)c1=O
IC50 (second compound 0.1 µM): > 10000 nM | IC50 (second compound 0.316 µM): > 10000 nM | IC50 (second compound 1 µM): > 10000 nM | IC50 (second compound 3.16 µM): > 10000 nM | IC50 (second compound 10 µM): > 10000 nM | viability, T/C [1]: 81.9% | viability, T/C [2]: 79.7% | viability, T/C (second compound 0.1 µM, first compound 0.316 µM): 71.8% | viability, T/C (second compound 0.1 µM, first compound 1 µM): 62.2% | viability, T/C (second compound 0.1 µM, first compound 3.16 µM): 59.9% | viability, T/C (second compound 0.1 µM, first compound 10 µM): 67.7% | viability, T/C [3]: 80.7% | viability, T/C [4]: 73% | viability, T/C (second compound 0.316 µM, first compound 0.316 µM): 70.8% | viability, T/C (second compound 0.316 µM, first compound 1 µM): 68.3% | viability, T/C (second compound 0.316 µM, first compound 3.16 µM): 62.6% | viability, T/C (second compound 0.316 µM, first compound 10 µM): 69.9% | viability, T/C [5]: 84% | viability, T/C [6]: 68.5% | viability, T/C (second compound 1 µM, first compound 0.316 µM): 68.3% | viability, T/C (second compound 1 µM, first compound 1 µM): 59.5% | viability, T/C (second compound 1 µM, first compound 3.16 µM): 70% | viability, T/C (second compound 1 µM, first compound 10 µM): 71.5% | viability, T/C [7]: 81.1% | viability, T/C [8]: 75.9% | viability, T/C (second compound 3.16 µM, first compound 0.316 µM): 64.4% | viability, T/C (second compound 3.16 µM, first compound 1 µM): 64.7% | viability, T/C (second compound 3.16 µM, first compound 3.16 µM): 76.6% | viability, T/C (second compound 3.16 µM, first compound 10 µM): 63.6% | viability, T/C [9]: 90.2% | viability, T/C [10]: 82.5% | viability, T/C (second compound 10 µM, first compound 0.316 µM): 65.3% | viability, T/C (second compound 10 µM, first compound 1 µM): 65.1% | viability, T/C (second compound 10 µM, first compound 3.16 µM): 77.2% | viability, T/C (second compound 10 µM, first compound 10 µM): 74.3%
